Assay results published in patent US11464770B2, “Anticancer pharmaceutical composition” (NATIONAL CANCER CENTER, priority 2016, dated 2022).
Like-named read-outs stand apart in the source and are kept apart here.

Key:
brain cancer cell lines = assay: Cell based assay, cell viability (CellTiter-Glo), brain cancer cell lines; conditions: Homo sapiens
renal cancer cell lines = assay: Cell based assay, cell viability (CellTiter-Glo), renal cancer cell lines; conditions: Homo sapiens; ACHN cells
Method in brief: (§1)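 72-hour continuous compound exposure, 0 to 2 μM final, begun one day after seeding; endpoint is ATP-based luminescent viability.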

[1] = system: prostate cancer cell lines (e.g. DU145/TXR); assay: Cell based assay, cell viability (CellTiter-Glo), prostate cancer cell lines; conditions: Homo sapiens, 72 hours treatment, final concentration 0 to 2 μM
Method in brief: as §1

neuroblastoma cell lines = assay: Cell based assay, cell viability (CellTiter-Glo), neuroblastoma cell lines; conditions: Homo sapiens; SH-SY5Y cell line
Method in brief: as §1

[2] = system: lung cancer cell lines (e.g. NCI-H23, NCI-H1229); assay: Cell based assay, cell viability (CellTiter-Glo), lung cancer cell lines; conditions: Homo sapiens, 72 hours treatment, CellTiter-Glo
Method in brief: as §1

liver cancer cell lines = assay: Cell based assay, cell viability (CellTiter-Glo), liver cancer cell lines; conditions: Homo sapiens, SK-HEP1; SK-HEP-1 cell line
Method in brief: as §1

[3] = U138-MG, U-138 MG cell line, read-out: IC50, Brain cancer cell line U-138 MG
[4] = T98G cell line, read-out: IC50, Brain cancer cell line T98G
[5] = U-251 MG cell line, read-out: IC50, Brain cancer cell line U-251 MG
[6] = CWR22 cells, read-out: IC50, prostate cancer cell line CWR22
[7] = DU-145, DU145/TXR cells, read-out: IC50, prostate cancer cell line DU145/TXR
[8] = DU-145, DU145 cells, read-out: IC50, prostate cancer cell line DU145
[9] = LNcap cells, read-out: IC50, prostate cancer cell line LNcap
[10] = PC-3 cells, read-out: IC50, prostate cancer cell line PC-3
[11] = A549 cells, read-out: IC50, lung cancer cell line A549
[12] = DMS 114 cells, read-out: IC50, lung cancer cell line DMS 114
[13] = NCI-H23 cells, read-out: IC50, lung cancer cell line NCI-H23
[14] = NCI-H460 cells, read-out: IC50, lung cancer cell line NCI-H460
[15] = NCI-H522 cells, read-out: IC50, lung cancer cell line NCI-H522
[16] = NCI-H1299 cells, read-out: IC50, lung cancer cell line NCI-H1299
[17] = NCI-H1437 cells, read-out: IC50, lung cancer cell line NCI-H1437

SMILES | IC50 (brain cancer cell lines; [3]) [nM] | IC50 (brain cancer cell lines; [4]) [nM] | IC50 (brain cancer cell lines; [5]) [nM] | IC50 (renal cancer cell lines) [nM] | IC50 [1, 6] [nM] | IC50 [1, 7] [nM] | IC50 [1, 8] [nM] | IC50 [1, 9] [nM] | IC50 [1, 10] [nM] | IC50 (neuroblastoma cell lines) [nM] | IC50 [2, 11] [nM] | IC50 [2, 12] [nM] | IC50 ([2]; MRC-5 cells, read-out: IC50) [nM] | IC50 [2, 13] [nM] | IC50 [2, 14] [nM] | IC50 [2, 15] [nM] | IC50 [2, 16] [nM] | IC50 [2, 17] [nM] | IC50 (liver cancer cell lines) [nM]
CC(=O)c1c([S+]([O-])Cc2ccc(SC(F)(F)F)cc2)[nH]c2c(Br)ccc(Cl)c2c1=O (stereo not drawn) [Compound 56, 3-acetyl-8-bromo-5-chloro-2-((4-((trifluoromethyl)thio)benzyl)sulfinyl)quinolin-4(1H)-one] | 1340 | > 10000 | 1170 | > 2000 | 1550 | 860 | 1420 | 1820 | 1300 | > 2000 | 1700 | > 2000 | 1240 | 1040 | 1900 | > 2000 | > 2000 | > 10000 | 1020
CC(=O)c1c([S+]([O-])Cc2ccc([N+](=O)[O-])cc2)[nH]c2c(Cl)ccc(Cl)c2c1=O (stereo not drawn) [Compound 57, 3-acetyl-5,8-dichloro-2-((4-nitrobenzyl)sulfinyl)quinolin-4(1H)-one] | > 10000 | > 10000 | > 2000 | > 2000 | > 2000 | > 2000 | > 2000 | > 2000 | > 2000 | > 2000 | > 2000 | > 2000 | > 2000 | 1830 | > 2000 | > 2000 | > 2000 | > 10000 | > 2000
COc1cc(C[S+]([O-])c2[nH]c3c(Br)ccc(Cl)c3c(=O)c2C(C)=O)cc(OC)c1 (stereo not drawn) [Compound 59, 3-acetyl-8-bromo-5-chloro-2-((3,5-dimethoxybenzyl)sulfinyl)quinolin-4(1H)-one] | 1500 | > 10000 | 1280 | > 2000 | 1560 | – | 1490 | > 2000 | 1640 | > 2000 | > 2000 | > 2000 | 1030 | 920 | 1810 | > 2000 | 1450 | > 10000 | 910
CC(=O)c1c([S+]([O-])Cc2ccc(C(C)(C)C)cc2)[nH]c2c(Br)ccc(Cl)c2c1=O (stereo not drawn) [Compound 60, 3-acetyl-8-bromo-2-((4-(tert-butyl)benzyl)sulfinyl)-5-chloroquinolin-4(1H)-one] | > 2000 | > 10000 | > 2000 | > 2000 | > 2000 | 1260 | > 2000 | > 2000 | 1820 | > 2000 | > 2000 | > 2000 | > 2000 | 1370 | > 2000 | > 2000 | > 2000 | > 10000 | > 2000
CC(=O)c1c([S+]([O-])Cc2ccc([S+]([O-])C(F)(F)F)cc2)[nH]c2c(Br)ccc(Cl)c2c1=O (stereo not drawn) [Compound 64, 3-acetyl-8-bromo-5-chloro-2-((4-((trifluoromethyl)sulfinyl)benzyl)sulfinyl)quinolin-4(1H)-one] | 1430 | > 10000 | > 2000 | > 2000 | 1490 | 1160 | 1570 | 1710 | 1430 | > 2000 | > 2000 | > 2000 | > 2000 | 980 | > 2000 | > 2000 | 1350 | > 10000 | 870
CC(=O)c1c([S+]([O-])Cc2ccc(C(F)(F)F)cc2)[nH]c2c(Br)ccc(Cl)c2c1=O (stereo not drawn) [Compound 70, 3-acetyl-8-bromo-5-chloro-2-((4-(trifluoromethyl)benzyl)sulfinyl)quinolin-4(1H)-one] | 1520 | > 10000 | 1140 | > 2000 | 1890 | 1190 | 1090 | > 2000 | 1250 | > 2000 | 1990 | > 2000 | 1010 | 1030 | 1610 | > 2000 | 1470 | > 10000 | 1030
CC(=O)c1c([S+]([O-])Cc2ccc(OC(F)(F)F)cc2)[nH]c2c(Br)ccc(Cl)c2c1=O (stereo not drawn) [Compound 71, 3-acetyl-8-bromo-5-chloro-2-((4-(trifluoromethoxy)benzyl)sulfinyl)quinolin-4(1H)-one] | > 2000 | > 10000 | > 2000 | > 2000 | > 2000 | 1230 | 1740 | > 2000 | 1700 | > 2000 | 1790 | > 2000 | > 2000 | 1460 | > 2000 | > 2000 | 1640 | > 10000 | 1180
CC(=O)c1c([S+]([O-])Cc2ccc(C(F)(F)F)o2)[nH]c2c(Br)ccc(Cl)c2c1=O (stereo not drawn) [Compound 72, 3-acetyl-8-bromo-5-chloro-2-(((5-(trifluoromethyl)furan-2-yl)methyl)sulfinyl)quinolin-4(1H)-one] | 1180 | > 10000 | 1070 | > 2000 | 1520 | 890 | 710 | 1910 | 1280 | > 2000 | 1790 | 1940 | 720 | 710 | 1540 | > 2000 | 1210 | > 10000 | 730
CC(=O)c1c([S+]([O-])Cc2ccc(C#N)cc2)[nH]c2c(Br)ccc(Cl)c2c1=O (stereo not drawn) [Compound 73, 4-(((3-acetyl-8-bromo-5-chloro-4-oxo-1,4-dihydroquinolin-2-yl)sulfinyl)methyl)benzonitrile] | > 2000 | > 10000 | > 2000 | > 2000 | > 2000 | 1770 | > 2000 | > 2000 | 1870 | > 2000 | > 2000 | > 2000 | > 2000 | 1520 | > 2000 | > 2000 | > 2000 | > 10000 | 1420
CC(=O)c1c([S+]([O-])Cc2c(F)cccc2Cl)[nH]c2c(Br)ccc(Cl)c2c1=O (stereo not drawn) [Compound 74, 3-acetyl-8-bromo-5-chloro-2-((2-chloro-6-fluorobenzyl)sulfinyl)quinolin-4(1H)-one] | 1440 | > 10000 | > 2000 | > 2000 | 1720 | 1460 | > 2000 | 1760 | 1470 | > 2000 | > 2000 | > 2000 | > 2000 | 1080 | > 2000 | > 2000 | 1420 | > 10000 | 880
